# Target: human 11βHSD1 enzyme (Homo sapiens (Human), UniProt P28845)
# Test: biochemical
# Conditions: not given
# Chain of human 11βHSD1 enzyme (P28845 whole entry): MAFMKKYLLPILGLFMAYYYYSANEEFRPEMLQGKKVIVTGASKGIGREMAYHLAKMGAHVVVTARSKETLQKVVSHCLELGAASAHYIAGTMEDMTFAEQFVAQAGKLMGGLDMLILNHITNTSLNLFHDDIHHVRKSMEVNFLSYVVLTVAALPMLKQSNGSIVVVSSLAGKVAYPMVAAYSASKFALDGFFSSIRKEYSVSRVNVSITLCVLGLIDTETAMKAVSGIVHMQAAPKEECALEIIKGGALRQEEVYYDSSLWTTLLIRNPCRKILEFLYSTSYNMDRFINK
row,Structure (SMILES),IC50 [µM]
1,"O=C(O)C[C@@H]1CCCN(c2ccc(C(=O)NC34CC5CC(CC(C5)C3)C4)cn2)C1 [{(3S)-1-[5-(adamantan-1-ylcarbamoyl)pyridin-2-yl]piperidin-3-yl}acetic acid, reference compound]",> 30

# Same assay, conditions: read-out: % inhibition of human 11-βHSD
row,Structure (SMILES),inhibition at 30 µM [%]
1,"CCCCc1nc(N2CC3C(C2)C3C(=O)O)ccc1C(=O)NC1C2CC3CC(C2)CC1C3 (centres unmarked) [Example 163, 3-[5-(2-adamantylcarbamoyl)-6-butyl-pyridin-2-yl]-3-azabicyclo[3.1.0]hexane-6-carboxylic acid]",93
2,"CCCOc1nc(N2CCCC(C(C)(C)C(=O)O)C2)ccc1C(=O)N[C@H]1C2CC3CC1C[C@](O)(C3)C2 (some centres unmarked) [Example 110, 2-[1-[5-[((2r,5s)-5-hydroxy-2-adamantyl)carbamoyl]-6-propoxy-pyridin-2-yl]-3-piperidyl]-2-methyl-propanoic acid]",95
3,"CCCSc1nc(N2CCCC(C(C)(C)C(=O)O)C2)ccc1C(=O)N[C@H]1C2CC3CC1C[C@](O)(C3)C2 (some centres unmarked) [Example 92, 2-[1-[5-[((2r,5s)-5-hydroxy-2-adamantyl)carbamoyl]-6-propylsulfanyl-pyridin-2-yl]-3-piperidyl]-2-methyl-propanoic acid]",89
4,"CCCSc1nc(Sc2ccc(CC(=O)O)cc2)ccc1C(=O)NC1CCCCC1 [Example 22, 2-[4-[5-(cyclohexylcarbamoyl)-6-propylsulfanyl-pyridin-2-yl]sulfanylphenyl]acetic acid]",65
5,"O=C(N[C@H]1C2CC3CC1C[C@](O)(C3)C2)c1ccc(N2CC[C@@H](C(=O)O)C2)nc1SC1CCCC1 [Example 96, (3R)-1-[6-cyclopentylsulfanyl-5-[((2r,5s)-5-hydroxy-2-adamantyl)carbamoyl]pyridin-2-yl]pyrrolidine-3-carboxylic acid]",88
6,"CCCSc1nc(N(C)[C@H]2CC[C@H](C(=O)O)CC2)ccc1C(=O)NC1CCCCC1 [Example 11, 4-[[5-(cyclohexylcarbamoyl)-6-propylsulfanyl-pyridin-2-yl]-methyl-amino]cyclohexane-1-carboxylic acid]",83
7,"CCCSc1nc(N2CCC[C@@H](CC(=O)O)C2)ccc1C(=O)N1CCCC(C(F)(F)F)C1 (stereo partly drawn) [Example 118, 2-[(3S)-1-[6-propylsulfanyl-5-[3-(trifluoromethyl)-piperidine-1-carbonyl]pyridin-2-yl]-3-piperidyl]acetic acid]",101
8,"O=C(O)C[C@@H]1CCCN(c2ccc(C(=O)NC3CCCCC3)c(N3CCN(C(=O)c4ccc(F)cc4)CC3)n2)C1 [compound 146, 2-[(3S)-1-[5-(cyclohexyl-carbamoyl)-6-[4-(4-fluorobenzoyl)piperazin-1-yl]pyridin-2-yl]-3-piperidyl]acetic acid]",58
9,"O=C(O)C[C@@H]1CCCN(c2ccc(C(=O)NC3CCCCC3)c(OCCCc3ccccc3)n2)C1 [compound 137, 2-[(3S)-1-[5-(cyclohexyl-carbamoyl)-6-(3-phenylpropoxy)pyridin-2-yl]-3-piperidyl] acetic acid]",99
10,"CCCSc1nc(N2CCC[C@@H](CC(=O)O)C2)ccc1C(=O)N[C@H]1C2CC3CC1C[C@](OC(F)F)(C3)C2 [Example 179, 2-[(3S)-1-[5-[[(2r,5s)-5-(Difluoromethoxy)-2-adamantyl]carbamoyl]-6-propylsulfanyl-pyridin-2-yl]-3-piperidyl]acetic acid]",87
11,"CCCSc1nc(Oc2cccc(CC(=O)O)c2)ccc1C(=O)NC1CCCCC1 [Example 23, 2-[3-[5-(cyclohexylcarbamoyl)-6-propylsulfanyl-pyridin-2-yl]oxyphenyl]acetic acid]",78
12,"CCCSc1nc(N2CCCC(C3(C(=O)O)CCC3)C2)ccc1C(=O)NC1CCCCC1 (centres unmarked) [Example 41, 1-[1-[5-(cyclohexylcarbamoyl)-6-propylsulfanyl-pyridin-2-yl]-3-piperidyl]cyclobutane-1-carboxylic acid]",82
13,O=C(O)C[C@@H]1CCCN(c2ccc(C(=O)N[C@H]3C4CC5CC3C[C@@](O)(C5)C4)c(SC3CCCCC3)n2)C1 [Example 103],90
14,"CC(C)(O)C1CCCN(C(=O)c2ccc(N3CCC[C@@H](CC(=O)O)C3)nc2SC2CCCC2)C1 (stereo partly drawn) [Example 128, 2-[(3S)-1-[6-cyclopentylsulfanyl-5-[3-(2-hydroxypropan-2-yl)piperidine-1-carbonyl]pyridin-2-yl]-3-piperidyl]acetic acid]",91
15,"O=C(O)C[C@@H]1CCCN(c2ccc(C(=O)NC3CCCCC3)c(N3CCN(c4ccccc4)CC3)n2)C1 [compound 145, 2-[(3S)-1-[5-(cyclohexylcarbamoyl)-6-(4-phenylpiperazin-1-yl)pyridin-2-yl]-3-piperidyl]acetic acid]",84
16,"CCCSc1nc(N2CCC(C(=O)O)C2)ccc1C(=O)N[C@H]1C2CC3CC1C[C@](OC(F)F)(C3)C2 (stereo partly drawn) [Example 185, 1-[5-[[(2r,5S)-5-(difluoromethoxy)-2-adamantyl]carbamoyl]-6-propylsulfanyl-pyridin-2-yl]pyrrolidine-3-carboxylic acid]",97
17,"CCCSc1nc(N2CC(OCC(=O)O)C2)ccc1C(=O)NC1CCCCC1 [Example 40, 2-[1-[5-(cyclohexylcarbamoyl)-6-propylsulfanyl-pyridin-2-yl]azetidin-3-yl]oxyacetic acid]",87

row,Structure (SMILES),inhibition at 30 µM [%]
1,"CCCSc1nc(Oc2cccc(C(=O)O)c2)ccc1C(=O)NC1CCCCC1 [Example 13, 3-[5-(cyclohexylcarbamoyl)-6-propylsulfanyl-pyridin-2-yl]oxybenzoic acid]",94
2,"CCCSc1nc(Sc2ccccc2C(=O)O)ccc1C(=O)NC1CCCCC1 [Example 24, 2-[5-(cyclohexylcarbamoyl)-6-propylsulfanyl-pyridin-2-yl]sulfanylbenzoic acid]",77
3,"CCCSc1nc(N2CCC[C@H](CC(=O)O)C2)c(F)cc1C(=O)NC1CCCCC1 [Example 187, (R)-2-(1-(5-(Cyclohexylcarbamoyl)-3-fluoro-6-(propylthio)pyridin-2-yl)piperidin-3-yl)acetic acid]",90
4,"CCCSc1nc(N2CC[C@@H](CC(=O)O)C2)ccc1C(=O)NC1C2CC3CC(C2)CC1C3 (stereo partly drawn) [Example 62, 2-[(3S)-1-[5-(2-adamantylcarbamoyl)-6-propylsulfanyl-pyridin-2-yl]pyrrolidin-3-yl]acetic acid]",89
5,"CCCSc1nc(N2CC[C@@H](C(=O)O)C2)ccc1C(=O)NC1C2CC3CC(C2)CC1C3 (stereo partly drawn) [Example 63, (3R)-1-[5-(2-adamantylcarbamoyl)-6-propylsulfanyl-pyridin-2-yl]pyrrolidine-3-carboxylic acid]",91
6,"O=C(N[C@H]1C2CC3CC1C[C@](O)(C3)C2)c1ccc(N2CC[C@@H](C(=O)O)C2)nc1SC1CCCCC1 [Example 102, (3R)-1-[6-cyclohexylsulfanyl-5-[((2r,5s)-5-hydroxy-2-adamantyl)carbamoyl]pyridin-2-yl]pyrrolidine-3-carboxylic acid]",89
7,"O=C(NC1CCCCC1)c1ccc(N2CCCC(C3(C(=O)O)CC3)C2)nc1SC1CCCC1 (centres unmarked) [Example 56, 1-[1-[5-(cyclohexylcarbamoyl)-6-cyclopentylsulfanyl-pyridin-2-yl]-3-piperidyl]cyclopropane-1-carboxylic acid]",97
8,"O=C(O)CO[C@H]1CCN(c2ccc(C(=O)NC3C4CC5CC(C4)CC3C5)c(SC3CCCC3)n2)C1 (stereo partly drawn) [Example 69, 2-[(3S)-1-[5-(2-adamantylcarbamoyl)-6-cyclopentylsulfanyl-pyridin-2-yl]pyrrolidin-3-yl]oxyacetic acid]",91
9,"CCSc1nc(N2CC[C@H](CC(=O)O)C2)ccc1C(=O)NC1C2CC3CC(C2)CC1C3 (stereo partly drawn) [Example 73, 2-[(3R)-1-[5-(2-adamantylcarbamoyl)-6-ethylsulfanyl-pyridin-2-yl]pyrrolidin-3-yl]acetic acid]",92
10,"O=C(O)C[C@@H]1CCCN(c2ccc(C(=O)NC3CCCCC3)c(N3CCc4ccccc4C3)n2)C1 [compound 144, 2-[(3S)-1-[5-(cyclohexylcarbamoyl)-6-(3,4-dihydro-1H-isoquinolin-2-yl)pyridin-2-yl]-3-piperidyl]acetic acid]",93
11,"CCCSc1nc(N2CCCC(CCC(=O)O)C2)ccc1C(=O)NC1CCCCC1 (centres unmarked) [Example 39, 3-[1-[5-(cyclohexylcarbamoyl)-6-propylsulfanyl-pyridin-2-yl]-3-piperidyl]propanoic acid]",74
12,"O=C(O)C[C@@H]1CCCN(c2ccc(C(=O)NC3CCCCC3)c(N3CCC(c4ccc(F)cc4)C3)n2)C1 (stereo partly drawn) [compound 143, 2-[(3S)-1-[5-(cyclohexylcarbamoyl)-6-[3-(4-fluorophenyl)pyrrolidin-1-yl]pyridin-2-yl]-3-piperidyl]acetic acid]",95
13,"O=C(O)C[C@@H]1CCCN(c2ccc(C(=O)NC3CCCCC3)c(OCCc3cccnc3)n2)C1 [compound 138, 2-[(3S)-1-[5-(cyclohexyl-carbamoyl)-6-(2-pyridin-3-ylethoxy)pyridin-2-yl]-3-piperidyl] acetic acid]",98
14,"CCCSc1nc(N2CC[C@H](CC(=O)O)C2)ccc1C(=O)N[C@H]1C2CC3CC1C[C@](OC(F)F)(C3)C2 [Example 184, 2-[(3R)-1-[5-[[(2r,5s)-5-(difluoromethoxy)-2-adamantyl]carbamoyl]-6-propylsulfanyl-pyridin-2-yl]pyrrolidin-3-yl]acetic acid]",94
15,"CCCSc1nc(N2C[C@@H]3[C@H](C2)[C@H]3C(=O)O)ccc1C(=O)NC1C2CC3CC(C2)CC1C3 (stereo partly drawn) [Example 66, (1S,5R)-3-[5-(2-adamantylcarbamoyl)-6-propylsulfanylpyridin-2-yl]-3-azabicyclo[3.1.0]hexane-6-carboxylic acid]",89
16,"CCS(=O)(=O)N1CCN(c2nc(N3CCC[C@@H](CC(=O)O)C3)ccc2C(=O)NC2CCCCC2)CC1 [compound 148, 2-[(3S)-1-[5-(cyclohexyl-carbamoyl)-6-(4-ethylsulfonyl-piperazin-1-yl)pyridin-2-yl]-3-piperidyl]acetic acid]",56
17,"CCCSc1nc(N2CCC(C3(C(=O)O)CC3)CC2)ccc1C(=O)NC1CCCCC1 [Example 50, 1-[1-[5-(cyclohexylcarbamoyl)-6-propylsulfanyl-pyridin-2-yl]-4-piperidyl]cyclopropane-1-carboxylic acid]",81

# — patent publication US8673938B2, “Chemical compounds” (priority 2006, dated 2014)
